Assays:
[1] = tested on: K/BxN serum transfer RA model; parameters: method as in PMID 18491295, PMID 22354754; details: cited from earlier work
[2] = tested on: COX-2 expression from SFs; parameters: method as in PMID 18802115; details: cited from earlier work
[3] = parameters: method as in PMID 22354754; details: cited from earlier work
recombinant ATX [4] = molecular target: T1, recombinant ATX (Homo sapiens, UniProt Q13822); experiment: TOOS activity assay, LPC hydrolysis by recombinant ATX; type: biochemical; details: substrate Km, TOOS
T1 construct: purchased SinoBiological Inc (main data); R&D (additional Km values)
Procedure: ATX/LysoPLD activity was assessed based on the amount of choline released from LPC with the use of TOOS (N-ethyl-N-(2-hydoroxy-3-sulfopropyl)-3-methylaniline) reagent. In this assay ATX-mediated LPC-liberated choline is oxidised by choline oxidase to betaine and hydrogen peroxide (H2O2). The latter in the presence of horseradish peroxidase reacts with TOOS and 4-aminoantipyrene (4-AAP) to form a pink quinoneimine dye measured at 555 nm.
Diluted plasma samples (100 fold dilution; final EDTA concentration 0.5 mM) or recombinant ATX protein (2 nM) were incubated with LPC in the presence of 100 mmol/l Tris–HCl/pH 9.0, 500 mmol/l NaCl, 5 mmol/l MgCl2, 5 mmol/l CaCl2, 60 μM CoCl2 and 0.05% Triton X-100 for 3 h at 37°C at a final volume of 100 μl. It should be noted that EDTA was used not only as an anticoagulant but also as an inhibitor of ATX activity ex vivo [46], in order to suppress artificial LPA production during blood withdrawal and plasma preparation; this is because the same samples were used in phospholipid measurements.
The liberated choline was detected by adding 100 μl of a color mix containing 4-AAP and TOOS (0.3 mM), horseradish peroxidase (5.3 UnitmL^−1) and choline oxidase (2 UnitmL^−1). Absorbance was measured at 555 nm and data were analyzed using the statistical software package Prism 4.0 (Graphpad Software Inc, La Jolla, CA, USA). For each sample and control the absorbance was plotted against time and the slope (da/min) for the linear (steady-state) portion of each reaction profile was calculated. Absorbance units were converted to nmol of choline/min/ml by comparison with a choline standard curve or by use of the extinction coefficient for the quinoneimine dye according to the following equation: [drawing 1] Where Vt* is the total volume of reaction in ml (0.2 ml); Vs* is the volume of sample in ml; e is the millimolar extinction coefficient of quinoneimine dye under the assay conditions (e = e = […]); and 1/2: Factor based on the fact that 1 mol of hydrogen peroxide produces 1/2 mol of quinoneimine dye.
(§1) The biochemistry of lyso-PLD was assessed by following the kinetics data using a wide panel of different ATX substrates [FS-3, different LPC species (14:0, 16:0, 18:0, 18:1)], three different recombinant ATX proteins (R&D, Sino-Biological and Echelon) and three different ATX activity assays (FS-3, TOOS, Amplex Red). The ATX activity was measured at different substrate concentrations (typically from 1-1000 μM) in order to examine whether ATX follows Michaelis-Menten kinetics. The Michaelis constant (Km) was obtained by fitting the substrate dependence of V (ATX activity) to a rectangular hyperbola using the non-linear regression analysis of the statistical software package Prism 4.0 (GraphPad Software, Inc.). Km and Vmax were evaluated from the rectangular hyperbola curve with the use of GraphPad software.
(§2) For in vitro inhibition measurements, BrP-LPA was dissolved in water as a stock solution (4 mM) and appropriate dilutions were made in water. The inhibition of ATX by BrP-LPA was measured employing 2 nM recombinant ATX, 50 μΜ LPC (14:0, 16:0, 18:0) and 0.01 to 100 μmol/L of BrP-LPA (final concentrations). The in vitro inhibition of ATX by BrP-LPA was evaluated with three different assays (FS-3, Amplex Red, and TOOS). […] BrP-LPA was also tested for its ability to inhibit mouse plasma ATX activity. Diluted mouse plasma was used as the source of ATX and the analysis of inhibition was made with TOOS as the in vitro inhibition assay.
The inhibition model (competitive, noncompetitive, or mixed type inhibition) was evaluated by graphical analysis with Lineweaver–Burk double reciprocal plots (1/[velocity] versus 1/[substrate]) and Cornish-Bowden plot ([substrate]/[velocity] versus [Inhibitor]). These plots were generated by the measurement of ATX activity in the presence of different BrP-LPA concentrations (0–10 μΜ) and increased amounts of 16:0 LPC (100, 200, 400 μΜ). […]

recombinant ATX [5] = molecular target: T1, recombinant ATX; experiment: Amplex Red activity assay, LPC hydrolysis by recombinant ATX (Echelon); type: biochemical; details: substrate Km, recombinant ATX from Echelon
Procedure: BrP-LPA inhibition was also tested with the more sensitive reagent Amplex Red based on the Amplex™ Red PLD assay kit (Molecular Probes, Interchim, Montluçon, France) originally designed for the measurement of the PLD activity, [49]. All reactions were performed with purified ATX (2 nM) from Echelon at 37°C. The ability of ATX to cleave LPC was detected using a coupled assay that monitors the release of choline using Amplex Red (10 μΜ), choline oxidase (0.2 Units/ml) and horseradish peroxidise (2 Units/ml) The rate of fluorescence increase was measured in a fluorescence plate reader (Tecan Infinite 200 microplate reader from Tecan Trading AG, Switzerland) for up to 80 minutes; the fluorescence increase was linear during that time-frame for all cases. Rates were normalized to control reactions that contained all reaction components except for the test compound.
as §1, §2
The inhibition model (competitive, noncompetitive, or mixed type inhibition) was evaluated by graphical analysis with Lineweaver–Burk double reciprocal plots (1/[velocity] versus 1/[substrate]) and Cornish-Bowden plot ([substrate]/[velocity] versus [Inhibitor]). These plots were generated by the measurement of ATX activity in the presence of different BrP-LPA concentrations (0–10 μΜ) and increased amounts of 16:0 LPC (100, 200, 400 μΜ). The inhibition constants (Ki) and IC50 values were determined using the mean values obtained from two independent experiments. The relative remaining ATX activity or LPA levels in the presence of the BrP-LPA was expressed as a percentage of the corresponding control value (ATX activity, LPA levels without inhibitor). The IC50 value was determined graphically by plotting the log concentration of BrP-LPA versus relative remaining ATX activity or LPA levels of each test sample using the sigmoid dose–response fitting method (Prism® software). The IC50 (concentration of BrP-LPA sufficient to inhibit ATX activity or diminish LPA levels by 50%) was calculated by the equation f = y0+a/(1+exp(-(x-x0)/b)) given by SigmaPlot 11.0 (Systat Software, Inc., San Jose, CA, USA).
Ki was calculated using the equation of Cheng and Prusoff: Ki = IC50/1+[S]/Km, where Ki is the binding affinity of the inhibitor, IC50 is the functional strength of the inhibitor, [S] is substrate concentration and Km is the concentration of substrate at which enzyme activity is half maximal. Whereas the IC50 value for a compound may vary between experiments depending on experimental conditions, Ki is an absolute value. […]

[6] = recombinant ATX from Sinobiological Inc

Km (recombinant ATX [4]; [6]) [µM] | SMILES | Km (recombinant ATX [4]; recombinant ATX from R&D) [µM] | Km (recombinant ATX [5]) [µM] | also measured
 | Cc1noc(-c2ccc(CSCCC(=O)O)cc2)c1NC(=O)OC(C)c1ccccc1Cl (stereo not shown) [ki16425] |  |  | arthritis severity [1]: reduction of arthritis severity; LPA-mediated COX-2 expression [2]: inhibit LPA-mediated COX-2 expression; half-life [3]: very short half-life
 | CCCCCCCCCCCCCC(=O)OC[C@@H](O)COP(=O)([O-])OCC[N+](C)(C)C [14:0 LPC, reference compound] |  | 80 ± 9 | 
60 ± 11 | CCCCCCCCCCCCCCCC(=O)OC[C@@H](O)COP(=O)([O-])OCC[N+](C)(C)C [16:0 LPC, reference compound] | 90 |  | 
55 ± 10 | CCCCCCCC/C=C\CCCCCCCC(=O)OC[C@@H](O)COP(=O)([O-])OCC[N+](C)(C)C [18:1 LPC, reference compound] |  |  | 

SMILES | Km (recombinant ATX [4]; [6]) [µM] | Km (recombinant ATX [4]; recombinant ATX from R&D) [µM] | Km (recombinant ATX [5]) [µM] | also measured
CCCCCCCCCCCCCCCCCC(=O)OC[C@@H](O)COP(=O)([O-])OCC[N+](C)(C)C [18:0 LPC, reference compound] | 82 ± 11 | 114 | 116 ± 13 | 

Reference: paper PMC3726599, “A Metabolically-Stabilized Phosphonate Analog of Lysophosphatidic Acid Attenuates Collagen-Induced Arthritis” (PLoS ONE, 2013)
